Molecule `COc1cc(OC)c(C(=O)C=Cc2ccc3c(c2)OCO3)c(OP(=O)(O)O)c1` returned a melting point of 79 to 80 °C.
As for `CCOc1cccc(-n2cc(-c3ccc4c(c3)OCO4)c3c(N)ncnc32)c1`, the figure is 153 to 155 °C; as for `NS(=O)(=O)c1ccc(-c2noc(-c3cnn4c(C(F)(F)F)cc(-c5ccc(Cl)cc5)nc34)n2)cc1`, 296 °C; as for `O=c1oc(CO)nn1Cc1ccccc1`, 54 °C.
As for `CCc1cc(C(=O)c2ccccc2Cl)c(-n2c(C)nnc2CNC(=O)c2c[nH]c3ccccc23)s1`, the figure is 140 to 145 °C; as for `CC1(C)OC(c2cccc(S(C)(=O)=O)c2)=C(c2ccccc2)C1=O`, 190 to 191 °C.
The result for `O=C1C2=C(CCCC2)C(=O)N1c1c(F)cc(F)cc1F` reads 91 to 92 °C; that for `CCOC(=O)Cc1n[nH]c(=O)c2cc(Cl)c(Cl)cc12`, 202 to 203 °C.
In turn, `COC(CCCNC(=O)CCCCC(=O)NCCCC(OC)OC)OC` yielded a melting point of 73 to 75 °C.
As for `CSc1nn2c(O)cc(C)nc2c1S(=O)(=O)c1ccc(C(C)C)cc1`, the figure is 183 to 184 °C; as for `CCOC(=O)COc1cccc(/C=C/c2nc3ccccc3s2)c1`, 150 to 151 °C.
As for `O=c1[nH]cnc2ccc(C=Cc3ccncc3)cc12`, the figure is 307 to 309 °C; as for `CCCN(CC)c1cc(C)nc(Oc2c(C)cc(Cl)cc2C)c1C`, 74 to 76 °C; as for `O=C1c2c(Cl)cccc2-n2cnc(-c3nc(CN4Cc5ccccc5C4)no3)c2[C@@H]2CCN12`, 170 to 175 °C.
The result for `CS(=O)(=O)N1CCCn2c(nc3c(N)nc4ccccc4c32)C1` reads 280 °C; that for `Cc1c(C(=O)NCc2ccc3c(Br)c(OCC#N)ccc3c2)oc2ccccc12`, 194 to 197 °C; that for `CC(C)(C(=O)NO)C(O)Cc1ccccc1` (stereo not drawn), 95 to 96 °C.
In turn, `Cc1nc2cc(NC(=O)c3cc4cc(-c5ccccc5)ncc4n3Cc3cccc(F)c3)ccc2n1C` registered a melting point of 288 to 290 °C.
The result for `CCCN(CCC)C(=O)C(=NNc1ccccc1)C(C)=O` reads 79 to 80 °C; that for `CC(=O)Nc1c([N+](=O)[O-])cc(Br)c2c1CCN(C(C)=O)C2`, 171 °C; that for `CCC1(CC)OC(c2ccc(S(C)(=O)=O)cc2)=CC1=O`, 109 to 110 °C.
As for `Fc1cc(F)c(-c2c(Cl)nc3nc(SCc4ccccc4)nn3c2Cl)c(F)c1`, the figure is 106 °C; as for `C=CCOc1ccccc1OCC(O)CNC(C)C` (stereo not drawn), 76 to 79 °C; as for `CCCCCCCCCCCCc1ccccc1C(Sc1nc(CCC)c(C(=O)O)n1C)C(=O)O` (stereo not drawn), 124 to 125 °C.
The result for `CCCNC(=O)CCn1c(CCC)nc2c(N)nc3ccccc3c21` reads 157 to 158 °C; that for `O=C1NN=C(c2ccc(C3CCCCC3)cc2)C2CC12` (stereo not drawn), 211 to 212 °C.
`CCN1C(=O)Cc2cccc(OC(=O)CCl)c21`: the melting point is 105 to 110 °C.
The result for `CCOC(=O)c1cc(O)ccc1OCC` reads 49 to 53 °C; that for `CCc1nnc(-c2ccc(N(C)C)cc2)n1-c1ccc(OC)cc1`, 148 °C.
As for `O=C1C(=O)c2ccccc2C2=C1SCC1(CCN(C(=O)c3ccccc3I)CC1)O2`, the figure is 165 to 166 °C.
The result for `O=C1NC(=O)C(Cc2ccc3c(c2)CCC(Cc2ccc(OCc4ccccc4)cc2)O3)S1` (stereo not drawn) reads 118 to 120 °C; that for `COc1cccc(COc2ccc(S(=O)(=O)c3ccc(C)nc3Nc3c(C)cc(C)cc3C)cc2)c1OC`, 124 to 126 °C.
In the case of `Cc1ccc(NS(=O)(=O)c2cccs2)c2[nH]c(C3=NCCS3)cc12`, the melting point lay in the range of 198 to 199 °C.
The result for `CC(C)(C)OC(=O)NC1CCc2ccccc2C(=Cc2ccccc2)C1=O` (stereo not drawn) reads 156 to 158 °C; that for `C[C@]1(COc2ccc(N3CCC(N4CCN(c5ccc(OC(F)(F)F)cc5)CC4)CC3)cc2)Cn2cc([N+](=O)[O-])nc2O1`, 279 to 281 °C.
As for `COC1(C)CN(c2ccc([N+](=O)[O-])cc2F)C1`, the melting point lay in the range of 110 to 111 °C.
`O=C(c1cccs1)c1cnn2c(-c3ccc(F)c(-c4ccc(CO)cc4)c3)ccnc12` had a melting point of 140 to 145 °C.
With `O=c1cc(C(F)(F)F)[nH]c(=O)n1-c1cc(O)c(Cl)cc1F`, the melting point fell in the range of 68 to 72 °C.
The result for `COc1cccc(OC)c1C(=O)NC(=S)NNC(=O)c1ccc(Cl)cc1` reads 206 to 208 °C; that for `Cc1ccc(N2CN(C(=O)c3ccccc3)C3=NN=CC3=C2N)cc1`, 297 to 300 °C.
As for `CCCCCCCCCc1nnc(C2=C(OC(C)=O)c3ccccc3S(=O)(=O)N2C)o1`, the figure is 118 to 119 °C; as for `Cc1cn(N=Cc2cccnc2)c(=O)n1N=Cc1cccnc1`, 176 to 178 °C; as for `C[C@@H]1C[C@@H]([C@H](CC2CCCCC2)NC(=O)OC(C)(C)C)OC1=O`, 80 to 82 °C.
For `CC(C)(C)C(NC(=O)Cc1ccc(Cl)cc1)NC(Cc1cccc2ncccc12)=NC#N` (stereo not drawn), the melting point was 186 to 188 °C.
The result for `CN(Cc1ccc(OC(=O)Cc2ccccc2Nc2c(Cl)cccc2Cl)cc1)CC(C)(C)SN=O` reads 126 to 130 °C; that for `CCn1c(=O)c2nc(C(=O)O)cn2c2ccccc21`, 250 to 252 °C; that for `O=c1ccc2cnc(Nc3ccccc3)nc2n1CCCOc1ccccc1`, 175 to 176 °C.
On to `CCC1=C(c2ccc(F)c(F)c2)C(=NO)CC1`, for which the melting point is 136 to 137 °C.
On to `CC(C)(C)OC(=O)NC1CCCOCC=CC2CC2(C(=O)NS(=O)(=O)C2CC2)NC(=O)C2CC(OC(=O)c3ccc(-c4ccccc4)cc3)CN2C1=O` (stereo not drawn), for which the melting point is 160 to 162 °C.
The result for `O=C(O)C(CC1CCCC1)c1ccc([N+](=O)[O-])cc1` (stereo not drawn) reads 119 to 125 °C; that for `CC1(C)COP(=O)(Cc2ccc([N+](=O)[O-])cc2)OC1`, 176 to 177 °C; that for `NC(=O)CN1C(=O)COc2cc(F)ccc21`, 212 to 214 °C.
The result for `Cc1cc(C)c2occ(-c3ccccc3)c2c1` reads 131 to 132 °C; that for `CCOC(=O)c1cc(=O)c2c(ccc3nc(C(=O)OC)cc(O)c32)o1`, 247 to 248 °C.
As for `Nc1cccc(-c2ccc(CCN3CCC4(CC3)NC(=O)N(Cc3ccccc3)C4=O)cc2)n1`, the figure is 190 °C.
For the molecule `CCOC(=O)c1ccc(NCCCCCCc2ccccc2)cc1`, the melting point is 69.5 to 72.5 °C.
The result for `OC1CSC(Oc2cccnc2Cl)C(O)C1O` (stereo not drawn) reads 153 °C; that for `CC(C)C(N=C(NN)NN)C(=O)O` (stereo not drawn), 112 to 116 °C.
As for `CC(=O)N(C)C(Cc1ccccc1N)c1ccc(C)s1` (stereo not drawn), the figure is 144 to 145 °C; as for `N#CC1CN1C(=O)NS(=O)(=O)c1ccccc1` (stereo not drawn), 103 to 108 °C; as for `Clc1cc2c(nn1)CCCCCCCCCC2`, 126 to 128 °C.
The result for `COc1cc2cc(-c3ccc(OCC(O)CNC(C)C)cc3)n(C)c(=O)c2cc1OC` (stereo not drawn) reads 206 to 207 °C.
In turn, `Nc1ccc(C#CCCN2CCC(O)(c3ccc(Cl)cc3)CC2)cc1` gave a melting point of 134 to 136 °C.
As for `CCCCCC=CCC=CCCCCCCCCBr`, the figure is 35 °C; as for `O=C(O)c1ncc(OCc2ccccc2)c(OCc2ccccc2)c1Br`, 155 to 157 °C; as for `CCOP(=O)(CCCCc1ccc2ccccc2c1O)OCC`, 90 to 91 °C.
The result for `O=C(c1ccc(O)c(Cl)c1)c1ccc(Cl)cc1Cl` reads 145 °C; that for `COc1ccc(Cl)cc1N1CCN(CCNc2nccc(C(=O)N3CCC(Nc4nc(=O)cc[nH]4)CC3)n2)CC1`, 114 to 117 °C.
`CCOCc1nc2c(N)nc3cc(CCCO)ccc3c2n1CC(C)(C)O`: the melting point lay in the range of 177 to 178 °C.
As for `CC(O)CC(=O)Nc1c(C(=O)c2ccccc2)[nH]c2cc(Cl)ccc12` (stereo not drawn), the figure is 159 to 162 °C.
As to `COc1cc([N+](=O)[O-])c(CC(=O)O)c(Cl)c1O`, the melting point stood at 231 °C.
The result for `COc1ccc2c(c1)c(Cc1cc(=O)n(C)[nH]1)c(C)n2C(=O)c1ccc(Cl)cc1` reads 146 to 147 °C.
The result for `CCCN(Cc1ccc(-c2ccccc2C2=NC(C)(C)CO2)cc1)C(c1ccccc1)(c1ccccc1)c1ccccc1` reads 151 to 153 °C.
The result for `COc1ccc2c(c1)CCC1CCNC(=O)C(CCN3CCCCC3)=C21` (stereo not drawn) reads 125 to 128 °C.
In turn, `CCCc1c(OCC(O)COc2cccc(NC(=O)C(=O)OCC)c2C#N)ccc(C(C)=O)c1O` (stereo not drawn) registered a melting point of 172 to 174 °C.
As for `NC(=O)c1[nH]c2ccccc2c1-c1ccc(NC(=O)Nc2ccc(C(F)(F)F)c(Cl)c2)cc1`, the figure is 168 to 170 °C.
As to `CC(C)(O)C#Cc1cc(C(F)(F)F)cc(C(F)(F)F)c1`, the melting point lay in the range of 74.5 to 74.8 °C.
Consider `c1ccc(OC(Oc2ccccc2)Oc2c3ccccc3cc3ccccc23)cc1`, for which the melting point fell in the range of 90 to 92 °C.
The result for `CCCCCCCCCCCCc1ccsc1-c1ccc2c(c1)c(=O)c1cc3c(cc12)c(=O)c1cc(-c2sccc2CCCCCCCCCCCC)ccc13` reads 152 to 153 °C; that for `Nc1nccc(C=Cc2ccc([N+](=O)[O-])cc2)n1`, 214 to 216 °C.
As for `C[C@@H](O)Cn1cnc2c(N)ncnc21`, the figure is 188 to 190 °C; as for `CCOC(=O)C1=C(C)NC(c2sc(C)nc2C)=NC1c1ccc(F)cc1Cl` (stereo not drawn), 117 to 119 °C; as for `COc1cccc(N2CCCN(c3ccnc4sc(C(N)=O)c(N)c34)CC2)c1`, 193 to 195 °C.
As for `Cc1cc(C)c([N+](=O)[O-])cc1-n1c(C)cc(C)c(C#N)c1=O`, the figure is 262 to 263 °C.
Molecule `O=S(=O)(Cc1ccc(C(O)c2ccc(Cl)cc2)cc1)C(F)(F)F` (stereo not drawn) displayed a melting point of 113 to 115 °C.
The result for `O=C(Nc1ccc(C(=O)N2C[C@@H]3CCCN3C(=O)c3ccccc32)cc1)c1ccccc1-c1ccccc1` reads 233 to 235 °C; that for `COCC1CN(c2ccc3cc(OCC4CC4)ccc3c2)C(=O)O1` (stereo not drawn), 119 to 120 °C; that for `COc1cccc2oc(C(=O)c3cccc(C(F)(F)F)c3)c(C)c12`, 91 to 92 °C.

The record behind these values is a melting point compilation (Tetko et al.; mined from patent text by program, amines drawn as free bases though some values may be those of a salt).
